Test results from patent US20220211663A1, “NANO CO-DELIVERY OF QUERCETIN AND ALANTOLACTONE PROMOTES ANTI-TUMOR RESPONSE THROUGH SYNERGISTIC IMMUNOGENIC CELL DEATH FOR MICROSATELLITE-STABLE COLORECTAL CANCER” (The University of North Carolina at Chapel Hill, priority 2019, published 2022).

Columns and labels:
[1] = system: CT26-FL3 cells; assay: MTT cytotoxicity and combination index (Chou and Talalay); type: cell-based, murine; conditions: Mus musculus, 24 h incubation, read-out: IC50 of Q alone
Procedure: The cytotoxicity of free Q, free A and drugs combination against CT26-FL3 cells were assessed using the MTT (3-[4,5-dimethylthiazol-2-yl]-2,5-diphenyltetrazolium bromide) method. Zhang et al., 2017. Cells were seeded in 96-well plates (5×10^3 cells per well) and incubated for 24 h before treatment. Then the culture medium was withdrawn and fresh medium containing free drugs and drug combination with a series of concentration were added to each well. Following 24-h incubation, cell viability was determined by MTT assay. The synergy of Q and A was evaluated by using the Chou and Talalay method to calculate the combination index (CI). Zhang et al., 2014; Chou et al., 1984. CI was calculated by using the following equation (1): CI=(D)1/(Dx)1+(D)2/(Dx)2 (1) […]

[2] = system: CT26-FL3 cells; assay: HMGB1 release by immunofluorescence (ICD); type: cell-based, murine
Procedure: (§1) CT26-FL3 cells were seeded in 35-mm cell culture dishes with glass bottom at the density of 2×10^5 per dish and incubated for 24 h before treatment. The cell culture medium was removed and replenished with different combination of Q and A containing media at the indicated concentrations for 4 h for CRT detection and for 8 h for HMGB1 detection. Cells were fixed and washed 3 times. A primary antibody, anti-CRT antibody (ab2907, 1:500, Abcam), diluted in cold blocking buffer (10% goat serum in PBS), was added for 60 min. After three washes in cold PBS, cells were then incubated for 60 min with the Alexa Fluor® 488 Goat Anti-Rabbit (IgG) (ab150077, 1:500, Abcam) diluted in a cold blocking buffer. Cells were fixed with 4% PFA for 20 min, and DAPI Mounting Medium was added for nuclear staining. For intracellular HMGB1 staining, cells were fixed and washed 3 times. Afterwards, cells were permeabilized with 0.1% Triton X-100 containing blocking buffer for 10 min, and rinsed three times with PBS, and nonspecific binding sites were blocked for 30 min A primary antibody for HMGB1 (ab79823, 1:500, Abcam) was added for 60 min. Cells were then incubated for 60 min with the Alexa Fluor® 488 Goat Anti-Rabbit (IgG) (ab150077, 1:500, Abcam) diluted in a cold blocking buffer. Cells were fixed with 4% PFA for 20 min, and DAPI Mounting Medium was added for nuclear staining. […]

[3] = Maximum concentration of free drug in lecithin suspension (sink condition); type: physicochemical; conditions: lecithin suspension 100 mg/mL
Procedure: The release behaviors of Q and A from QA-M were investigated by a dialysis method. The QA-M (2 mL) was placed into a preswelled dialysis bag (cutting Mw 8000), which was then immersed into empty lecithin suspension (PC-98T, 100 mg/mL, 100 mL) at 37° C. for 72 hours under stirring at a speed of 100 rpm. The lecithin suspension was formed by film-hydration method followed by sonication and the size of this lecithin suspension was around 100 nm. Sink condition was confirmed by determination of the maximum concentration for free Q and A in the lecithin suspension, which was 0.5 mg/mL and 0.8 mg/mL, respectively. At different time points, 1.0 mL of sample was withdrawn from the release medium, mixed with methanol and measured for the Q and A using the HPLC method mentioned above. The release medium was replenished with an equal volume of fresh medium at 37° C. Sink condition was maintained throughout the experiment. All measurements were performed in triplicate, and the mean values and standard deviations are calculated.

[4] = system: CT26-FL3 cells; assay: CRT translocation by immunofluorescence (ICD); type: cell-based, murine; conditions: free Q alone 0.07 μM, 4 h
Procedure: as §1

[5] = system: orthotopic CT26-FL3 tumors; assay: Orthotopic colon tumor growth inhibition and survival; type: in vivo, Balb/c mice; conditions: i.v. four times every other day, Q 3 mg/kg, A 9 mg/kg
Procedure: An orthotopic CT26-FL3 colorectal tumor model was established in female Balb/c mice as reported previously. Song et al., 2018. Twenty-eight tumor-bearing mice were divided into seven random groups: PBS, free Q (Q-F), free A (A-F), combination of free Q and A (QA-F), Q-M, A-M and QA-M. Formulations were intravenously injected to mice once every 2 days by total four injections (i.v.) with a Q dose of 3 mg/kg and A dose of 9 mg/kg. Mice in PBS groups were injected with PBS as control. The tumor burden was detected by intraperitoneal (i.p.) injection of 100 μL of D-luciferin (Pierce™, 20 mg/mL) followed by bioluminescent analysis using an IVIS® Kinetics Optical System (Perkin Elmer, Calif.). The tumor growth and body weight of mice were recorded every 2 days. The increment of tumor volume was calculated as luminescence intensities and normalized to the original value on the first day of measurement (Vt/V0). Body weight of mice in each group was documented. Nine days after the last injection, mice were sacrificed and the tumor, heart, liver, spleen, lung and kidney tissues were removed and used for the present study. Blood samples were collected from the orbital plexus into heparinized tubes and then centrifuged at 5,000 rpm for five minutes to separate the plasma. One portion of tumor, spleen and lymph nodes were collected for flow cytometric analysis. […]

SMILES	IC50 [1]	HMGB1 release ([2]; free Q alone 0.33 μM, 8 h)	release of HMGB1 compared to control group ([2]; single drug: Q 0.33 μM, A 1.3 μM)	maximum concentration in the lecithin suspension [3]	CRT translocation [4]	tumor growth [5]
O=c1c(O)c(-c2ccc(O)c(O)c2)oc2cc(O)cc(O)c12 [Q, quercetin]	148 µM	minimum or undetectable effect	undetectable release	0.5 mg/mL	minimum or undetectable effect	–
O=c1c(O)c(-c2ccc(O)c(O)c2)oc2cc(O)cc(O)c12 [Q-F, quercetin]	–	–	–	–	–	very similar to that of QA-F
